# From patent US11802111B2, “Cyclobutyl amide monoacylglycerol lipase modulators” (Janssen Pharmaceutica NV, priority 2020, dated 2023)
# Target: human MGL from HeLa cells (Homo sapiens (Human), UniProt Q99685)
# Assay: MGL in vitro activity assay ([glycerol-1,3-3H]-oleoyl glycerol hydrolysis, activated carbon filtration)
# Format: biochemical
# Conditions: 300 nM [Glycerol-1,3-3H]-oleoyl glycerol, one hour
# Procedure: The assay used to measure the in vitro activity of MGL is adapted from the assay used for another serine hydrolase (FAAH) described in Wilson et al., 2003 (A high-throughput-compatible assay for determining the activity of fatty acid amide hydrolase. Wilson S J, Lovenberg T W, Barbier A J. Anal Biochem. 2003 Jul. 15; 318(2):270-5). The assay consists of combining endogenously expressed MGL from HeLa cells with test compounds, adding [glycerol-1,3-^3H]-oleyl glycerol, incubating for one hour, and then measuring the amount of cleaved [1,3-^3H]-glycerol that passes through an activated carbon filter. The amount of cleaved, tritiated glycerol passing through the carbon filter is proportional to the activity of the MGL enzyme in a particular well/test condition.
# Standard conditions for this assay combine 300 nM [Glycerol-1,3-^3H]-oleoyl glycerol with human MGL from HeLa cells and test compounds for one hour, after which the reaction is filtered through activated carbon and tritium is measured in the flow through. The test compound concentration in screening mode is 10 μM, while the highest compound concentration in IC50 assays is determined empirically. MGL is the predominant hydrolase in HeLa cells/cell homogenates.
# Chain of human MGL from HeLa cells (Q99685 whole entry): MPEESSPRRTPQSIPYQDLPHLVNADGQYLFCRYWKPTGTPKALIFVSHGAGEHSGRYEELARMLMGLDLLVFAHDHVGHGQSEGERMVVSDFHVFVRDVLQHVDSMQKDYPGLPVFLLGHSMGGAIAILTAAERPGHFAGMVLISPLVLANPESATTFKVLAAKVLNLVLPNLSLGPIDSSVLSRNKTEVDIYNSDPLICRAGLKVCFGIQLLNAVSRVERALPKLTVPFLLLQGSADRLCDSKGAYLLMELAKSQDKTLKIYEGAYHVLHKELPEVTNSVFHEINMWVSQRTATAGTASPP
row,Structure (SMILES),IC50 [nM]
1,"CC(F)(F)c1ccc(OC2CCC3(CC2)CN(C(=O)[C@H]2C[C@@](C)(O)C2)C3)nc1 [Example 422, (7-((5-(1,1-Difluoroethyl)pyridin-2-yl)oxy)-2-azaspiro[3.5]nonan-2-yl)((1s,3s)-3-hydroxy-3-methylcyclobutyl)methanone]",24
2,"Cc1nc(CC2CC3(C2)CN(C(=O)[C@H]2C[C@@](C)(O)C2)C3)ccc1OC(F)F [Example 280, (6-((5-(Difluoromethoxy)-6-methylpyridin-2-yl)methyl)-2-azaspiro[3.3]heptan-2-yl)((1s,3s)-3-hydroxy-3-methylcyclobutyl)methanone]",37
3,"Cc1cc(CC2CCC3(C2)CN(C(=O)[C@H]2C[C@@](C)(O)C2)C3)ccc1C(F)(F)F (mixture of isomers) [Example 204, (rac)-((1s,3s)-3-Hydroxy-3-methylcyclobutyl)(6-(3-methyl-4-(trifluoromethyl)benzyl)-2-azaspiro[3.4]octan-2-yl)methanone]",3.9
4,"Cc1cc(OC(F)F)ccc1C1CCC2(C1)CN(C(=O)[C@H]1C[C@@](C)(O)C1)C2 (mixture of isomers) [Example 83, (rac)-(6-(4-(Difluoromethoxy)-2-methylphenyl)-2-azaspiro[3.4]octan-2-yl)((1s,3s)-3-hydroxy-3-methylcyclobutyl)methanone]",25
5,"COc1cccc(CC2CC3(C2)CN(C(=O)[C@H]2C[C@@](C)(O)C2)C3)n1 [Example 191, ((1s,3s)-3-Hydroxy-3-methylcyclobutyl)(6-((6-methoxypyridin-2-yl)methyl)-2-azaspiro[3.3]heptan-2-yl)methanone]",159
6,"Cc1ccc(OC2CCC3(CC2)CN(C(=O)[C@H]2C[C@@](C)(O)C2)C3)nc1C [Example 428, (7-((5,6-Dimethylpyridin-2-yl)oxy)-2-azaspiro[3.5]nonan-2-yl)((1s,3s)-3-hydroxy-3-methylcyclobutyl)methanone]",47
7,"C[C@]1(O)C[C@@H](C(=O)N2CC3(CC(c4cccc(N5CCCC5)c4)C3)C2)C1 [Example 32, ((1s,3s)-3-Hydroxy-3-methylcyclobutyl)(6-(3-(pyrrolidin-1-yl)phenyl)-2-azaspiro[3.3]heptan-2-yl)methanone]",178
8,"C[C@]1(O)C[C@@H](C(=O)N2CC3(CCC(c4cc(C5CC5)ccc4F)C3)C2)C1 (mixture of isomers) [Example 81, (rac)-(6-(5-Cyclopropyl-2-fluorophenyl)-2-azaspiro[3.4]octan-2-yl)((1s,3s)-3-hydroxy-3-methylcyclobutyl)methanone]",20
9,"C[C@]1(O)C[C@@H](C(=O)N2CC3(CC(c4cccc(C5CC5)c4)C3)C2)C1 [Example 20, (6-(3-Cyclopropylphenyl)-2-azaspiro[3.3]heptan-2-yl)((1s,3s)-3-hydroxy-3-methylcyclobutyl)methanone]",37
10,"Cn1ccc2cnc(CC3CC4(C3)CN(C(=O)[C@H]3C[C@@](C)(O)C3)C4)cc21 [Example 298, ((1s,3s)-3-Hydroxy-3-methylcyclobutyl)(6-((1-methyl-1H-pyrrolo[3,2-c]pyridin-6-yl)methyl)-2-azaspiro[3.3]heptan-2-yl)methanone]",775
11,"C[C@]1(O)C[C@@H](C(=O)N2CC3(CCC(Oc4ccc(C(F)(F)F)nc4)CC3)C2)C1 [Example 424, ((1s,3s)-3-Hydroxy-3-methylcyclobutyl)(7-((6-(trifluoromethyl)pyridin-3-yl)oxy)-2-azaspiro[3.5]nonan-2-yl)methanone]",99
12,"COc1ccnc(OC2CCC3(CC2)CN(C(=O)[C@H]2C[C@@](C)(O)C2)C3)c1Cl [Example 464, (7-((3-Chloro-4-methoxypyridin-2-yl)oxy)-2-azaspiro[3.5]nonan-2-yl)((1s,3s)-3-hydroxy-3-methylcyclobutyl)methanone]",81
13,"Cc1cc(C2CCC3(C2)CN(C(=O)[C@H]2C[C@@](C)(O)C2)C3)ccc1Cl (mixture of isomers) [Example 68, (rac)-(6-(4-Chloro-3-methylphenyl)-2-azaspiro[3.4]octan-2-yl)((1s,3s)-3-hydroxy-3-methylcyclobutyl)methanone]",12
14,"Cc1ccc(F)c(C2CCC3(CC2)CN(C(=O)[C@H]2C[C@@](C)(O)C2)C3)c1 [Example 354, (7-(2-Fluoro-5-methylphenyl)-2-azaspiro[3.5]nonan-2-yl)((1s,3s)-3-hydroxy-3-methylcyclobutyl)methanone]",20
15,"CN(C)c1cc(C2CCC3(CC2)CN(C(=O)[C@H]2C[C@@](C)(O)C2)C3)ccc1C(F)(F)F [Example 115, (7-(3-(Dimethylamino)-4-(trifluoromethyl)phenyl)-2-azaspiro[3.5]nonan-2-yl)((1s,3s)-3-hydroxy-3-methylcyclobutyl)methanone]",17
16,"Cc1cc2ccc(CC3CC4(C3)CN(C(=O)[C@H]3C[C@@](C)(O)C3)C4)nc2n1C [Example 292, (6-((1,2-Dimethyl-1H-pyrrolo[2,3-b]pyridin-6-yl)methyl)-2-azaspiro[3.3]heptan-2-yl)((1s,3s)-3-hydroxy-3-methylcyclobutyl)methanone]",19

# Further lines, results first:
row,IC50 [nM],Structure (SMILES)
1,3.1,"Cc1cc(C(F)(F)F)ccc1OC1CC2(CCN(C(=O)[C@H]3C[C@@](C)(O)C3)CC2)C1 [Example 479, ((1s,3s)-3-Hydroxy-3-methylcyclobutyl)(2-(2-methyl-4-(trifluoromethyl)phenoxy)-7-azaspiro[3.5]nonan-7-yl)methanone]"
2,6.8,"COc1ccc(Cl)c(OC2CCC3(CC2)CN(C(=O)[C@H]2C[C@@](C)(O)C2)C3)n1 [Example 462, (7-((3-Chloro-6-methoxypyridin-2-yl)oxy)-2-azaspiro[3.5]nonan-2-yl)((1s,3s)-3-hydroxy-3-methylcyclobutyl)methanone]"
3,1.8,"CCc1ccc(OC2CCC3(CC2)CN(C(=O)[C@H]2C[C@@](C)(O)C2)C3)nc1C(F)F [Example 439, (7-((6-(Difluoromethyl)-5-ethylpyridin-2-yl)oxy)-2-azaspiro[3.5]nonan-2-yl)((1s,3s)-3-hydroxy-3-methylcyclobutyl)methanone]"
4,41,"C[C@]1(O)C[C@@H](C(=O)N2CC3(CCC(c4cccc(C5CC5)c4)C3)C2)C1 (mixture of isomers) [Example 58, (rac)-(6-(3-Cyclopropylphenyl)-2-azaspiro[3.4]octan-2-yl)((1s,3s)-3-hydroxy-3-methylcyclobutyl)methanone]"
5,64,"Cc1ccc([C@@H]2CCC3(C2)CN(C(=O)[C@H]2C[C@@](C)(O)C2)C3)c(C)c1 (stereo in doubt) [Example 322, ((*R)-6-(2,4-Dimethylphenyl)-2-azaspiro[3.4]octan-2-yl)((1s,3*S)-3-hydroxy-3-methylcyclobutyl)methanone]"
6,3,"Cc1c(CC2CC3(C2)CN(C(=O)[C@H]2C[C@@](C)(O)C2)C3)cccc1C(F)(F)F [Example 155, ((1s,3s)-3-Hydroxy-3-methylcyclobutyl)(6-(2-methyl-3-(trifluoromethyl)benzyl)-2-azaspiro[3.3]heptan-2-yl)methanone]"
7,40,"COC1(c2ccccc2)CCC2(CC1)CN(C(=O)[C@H]1C[C@@](C)(O)C1)C2 [Example 342, ((1s,3s)-3-Hydroxy-3-methylcyclobutyl)(7-methoxy-7-phenyl-2-azaspiro[3.5]nonan-2-yl)methanone]"
8,52,"C[C@]1(O)C[C@@H](C(=O)N2CC3(CC(Cc4ccccc4)C3)C2)C1 [Example 164, (6-Benzyl-2-azaspiro[3.3]heptan-2-yl)((1s,3s)-3-hydroxy-3-methylcyclobutyl)methanone]"
9,22,"Cc1cc(Cl)ccc1C1CCC2(C1)CN(C(=O)[C@H]1C[C@@](C)(O)C1)C2 (mixture of isomers) [Example 10, (rac)-(6-(4-Chloro-2-methylphenyl)-2-azaspiro[3.4]octan-2-yl)((1s,3s)-3-hydroxy-3-methylcyclobutyl)methanone]"
10,56,"C[C@]1(O)C[C@@H](C(=O)N2CC3(CCC(c4cccc(-n5cccn5)c4)CC3)C2)C1 [Example 347, (7-(3-(1H-Pyrazol-1-yl)phenyl)-2-azaspiro[3.5]nonan-2-yl)((1s,3s)-3-hydroxy-3-methylcyclobutyl)methanone]"
11,33,"COc1cc(C2CCC3(CC2)CN(C(=O)[C@H]2C[C@@](C)(O)C2)C3)ccc1C1CC1 [Example 140, (7-(4-Cyclopropyl-3-methoxyphenyl)-2-azaspiro[3.5]nonan-2-yl)((1s,3s)-3-hydroxy-3-methylcyclobutyl)methanone]"
12,37,"Cc1c(OC2CCC3(C2)CN(C(=O)[C@H]2C[C@@](C)(O)C2)C3)cccc1C1CC1 (mixture of isomers) [Example 333, (rac)-(6-(3-Cyclopropyl-2-methylphenoxy)-2-azaspiro[3.4]octan-2-yl)((1s,3s)-3-hydroxy-3-methylcyclobutyl)methanone]"
13,82,"CC(C)(C)c1cncc(C2CCC3(CC2)CN(C(=O)[C@H]2C[C@@](C)(O)C2)C3)n1 [Example 377, (7-(6-(tert-Butyl)pyrazin-2-yl)-2-azaspiro[3.5]nonan-2-yl)((1s,3s)-3-hydroxy-3-methylcyclobutyl)methanone]"
14,20,"COc1cc(C2CC2)cc(C2CCC3(CC2)CN(C(=O)[C@H]2C[C@@](C)(O)C2)C3)c1 [Example 141, (7-(3-Cyclopropyl-5-methoxyphenyl)-2-azaspiro[3.5]nonan-2-yl)((1s,3s)-3-hydroxy-3-methylcyclobutyl)methanone]"
15,15,"Cc1ccc(C2CCC3(C2)CN(C(=O)[C@H]2C[C@@](C)(O)C2)C3)cc1Cl (mixture of isomers) [Example 71, (rac)-(6-(3-Chloro-4-methylphenyl)-2-azaspiro[3.4]octan-2-yl)((1s,3s)-3-hydroxy-3-methylcyclobutyl)methanone]"
